In ChEMBL document CHEMBL5034038, “Zanamivir-Cholesterol Conjugate: A Long-Acting Neuraminidase Inhibitor with Potent Efficacy against Drug-Resistant Influenza Viruses” (J Med Chem, 2021):
Activity calls are given as the source filed them. The calls are words filed in the database; no cut-off is given here.

Assays:
[1] = Inhibition of Influenza A virus (A/California/07/2009 (H1N1)) neuraminidase N1 H275Y mutant using MUNANA as substrate preincubated for 30 mins followed by substrate addition by fluorescence method
[2] = Inhibition of Influenza A virus (A/Moscow/10/99 (H3N2)) neuraminidase N2 E119V variant using MUNANA as substrate preincubated for 30 mins followed by substrate addition by fluorescence method
Influenza A virus [3] = experiment: Antiviral activity against Influenza A virus (A/California/07/2009 (H1NI)) harboring NA H275Y mutant infected in dog MDCK cells assessed as reduction in virus replication incubated for 72 hrs by CCK8 assay; type: functional, organism-based, A/California/07/2009(H1N1)
Influenza A virus [4] = experiment: Antiviral activity against Influenza A virus (A/Moscow/10/99 (H3N2)) harboring NA E119V mutant infected in dog MDCK cells assessed as reduction in virus replication incubated for 72 hrs by CCK8 assay; type: functional, organism-based
Influenza A virus [5] = experiment: Protection against Influenza A virus (A/California/07/2009 (H1NI)) harboring NA H275Y mutant infected in Balb/c mouse at 4.2 to 8.4 uM/kg, IV administered once daily for 7 days starting from 24 hrs prior to viral infection; type: functional, A/California/07/2009(H1N1); conditions: dose 4.2-8.4 µM/Kg
Influenza A virus [6] = experiment: Protection against Influenza A virus (A/California/07/2009 (H1NI)) harboring NA H275Y mutant infected in Balb/c mouse at 8.4 uM/kg, IV administered once daily for 7 days starting from 24 hrs post to viral infection; type: functional, A/Puerto Rico/8/1934(H1N1)

Row | SMILES | IC50 [1] [nM] | IC50 [2] [nM] | EC50 (Influenza A virus [3]) [nM] | EC50 (Influenza A virus [4]; read-out: EC50) [nM] | Activity (Influenza A virus [5]; time 7 day, at 4.2 to 8.4 µmol/kg) [%] | Activity (Influenza A virus [6]; time 7 day, at 8.4 µmol/kg) [%] | EC50 (Influenza A virus [4]) [nM] | Activity (Influenza A virus [5]; A/California/07/2009(H1N1), time 7.0 day) | Activity (Influenza A virus [6]; A/Puerto Rico/8/1934(H1N1), time 7.0 day)
1 | CC(=O)N[C@H]1[C@H]([C@H](OC(=O)NCCOCCOCCOCCOCCOCCOCc2cn(CCCCCCO[C@H]3CC[C@@]4(C)C(=CC[C@H]5[C@@H]6CC[C@H]([C@H](C)CCCC(C)C)[C@@]6(C)CC[C@@H]54)C3)nn2)[C@H](O)CO)OC(C(=O)O)=C[C@@H]1NC(=N)N | 22 | 162 | 22 | 422 | 100 | 100 |  |  | 
2 | CC(=O)N[C@H]1[C@H]([C@H](O)[C@H](O)CO)OC(C(=O)O)=C[C@@H]1NC(=N)N [ZANAMIVIR] | 1 | 10 | 26.6 |  |  |  | 5240 |  | 
3 | CC(=O)N[C@H]1[C@H]([C@H](OC(=O)NCCOCCOCCOCCOCCOCCOCCOCCOCCOCCOCCOCCOCc2cn(CCCCCCO[C@H]3CC[C@@]4(C)C(=CC[C@H]5[C@@H]6CC[C@H]([C@H](C)CCCC(C)C)[C@@]6(C)CC[C@@H]54)C3)nn2)[C@H](O)CO)OC(C(=O)O)=C[C@@H]1NC(=N)N | 573 | 8580 | 2600 | 8260 |  |  |  |  | 
4 | CC(=O)N[C@H]1[C@H]([C@H](OC(=O)NCCOCCOCCOCc2cn(CCCCCCO[C@H]3CC[C@@]4(C)C(=CC[C@H]5[C@@H]6CC[C@H]([C@H](C)CCCC(C)C)[C@@]6(C)CC[C@@H]54)C3)nn2)[C@H](O)CO)OC(C(=O)O)=C[C@@H]1NC(=N)N | 127 | 773 | 653 | 4810 |  |  |  |  | 
5 | CCC(CC)O[C@@H]1C=C(C(=O)O)C[C@H](N)[C@H]1NC(C)=O [OSELTAMIVIR CARBOXYLATE] | 938 | 22.4 | 2610 | 30200 |  |  |  | inactive | inactive
6 | CCCCCCn1cc(COCCOCCOCCOCCOCCOCCNC(=O)O[C@@H]([C@@H]2OC(C(=O)O)=C[C@H](NC(=N)N)[C@H]2NC(C)=O)[C@H](O)CO)nn1 | 30.3 | 296 | 612 | 4730 |  |  |  |  | 
